From US7618945B2, “Heteroaryl peptidomimetics as thrombin receptor antagonists” (Janssen Pharmaceutica, N.V., priority 2002, dated 2009)

Key:
gel-filtered platelets [1] = test: Inhibition of thrombin-induced gel-filtered platelet aggregation; assay type: cell-based; conditions: aggregation initiated by human α-thrombin 0.113 nM-0.187 nM, OD 650 at 0 and 5 min
Experimental: (§1) In Vitro Inhibition Of Thrombin- and SFLLRN-NH2-Induced Gel-Filtered Platelet Aggregation Assay
(§2) Platelet Rich Plasma concentrate (Biological Specialties, Inc) is gel filtered (Sepharose 2B, Pharmacia) in Tyrode's buffer (140 mM NaCl, 2.7 mM KCl, 12 mM NaHCO3, 0.76 mM Na2HPO4, 5.5 mM dextrose, 5.0 mM Hepes, and 2 mg/ml BSA @ pH 7.4). The gel-filtered platelets are diluted with Tyrode's buffer (143,000 platelets/μl, final platelet count per well), compound solution in buffer, and 2 mM CaCl2 in a 96 well plate. Platelet aggregation is initiated by the addition of human α-thrombin (American Diagnostica, 0.113 nM-0.187 nM) or SFLLRN-NH2 (2 μM) shown to achieve 80% aggregation (0.015-0.025 NIH U/ml, 0.113 nM-0.187 nM). The assay plate is stirred constantly. Platelet aggregation is monitored by intermittently placing the plate in a microplate reader (Molecular Devices) to read optical density ([…], ΔSOFT) at 0 and 5 minutes after the thrombin addition. Aggregation was calculated to be the decrease in optical density between the time 0 and 5 minute measurements. All samples were tested in duplicate wells on the same plate.
(§3) Table 3 contains IC50 values (μM) of the compounds against platelet aggregation stimulated by thrombin and IC50 values (μM) in a thrombin receptor (PAR-1) binding assay.

gel-filtered platelets [2] = test: Inhibition of SFLLRN-NH2-induced gel-filtered platelet aggregation; assay type: cell-based; conditions: aggregation initiated by SFLLRN-NH2 (2 μM), OD 650 at 0 and 5 min
Experimental: as §1, §2

[3] = biological target: T1, thrombin receptor (PAR-1) (Homo sapiens, UniProt P25116); test: In vitro thrombin receptor binding assay (CHRF membranes); conditions: tritiated 721-40 (Ser-pFPhe-Har-Leu-Har-Lys-Tyr-NH2), 30 min incubation
T1 construct: CHRF membranes (Jones, Biochim. Biophys. Acta 1992, 1136, 272) are thawed from −70° C; endogenous in cells; host or cells: CHRF cell membranes (CHRF-288 megakaryoblastic line, per the cited Jones 1992)
T1 sequence (P25116 22-425): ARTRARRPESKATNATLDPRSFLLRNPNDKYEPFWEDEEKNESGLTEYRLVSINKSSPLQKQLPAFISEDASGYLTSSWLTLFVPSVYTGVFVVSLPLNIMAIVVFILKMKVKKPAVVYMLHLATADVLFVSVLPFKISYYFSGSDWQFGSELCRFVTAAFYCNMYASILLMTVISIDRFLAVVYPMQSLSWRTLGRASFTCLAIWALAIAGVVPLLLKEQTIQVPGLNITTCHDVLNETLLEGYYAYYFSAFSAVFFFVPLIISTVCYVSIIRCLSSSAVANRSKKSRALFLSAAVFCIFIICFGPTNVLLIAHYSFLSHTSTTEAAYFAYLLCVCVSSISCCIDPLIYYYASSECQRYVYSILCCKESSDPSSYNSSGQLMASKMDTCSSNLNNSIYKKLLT
Experimental: In Vitro Thrombin Receptor Binding Assay
CHRF membranes (Jones, Biochim. Biophys. Acta 1992, 1136, 272) are thawed from −70° C., centrifuged at maximum speed for 5 min, washed twice with binding buffer (50 mM HEPES containing 5 mM MgCl2 and 0.1% BSA), and re-suspended in binding buffer ([…]). 100 μL of membranes are added to the 24-Wallac plates and delivered to the Tomtech apparatus. In a typical experiment, 6 μL of samples (from a 125 μg/mL intermediary plate, 20% DMSO) and 44 μL buffer are delivered to the plates (final conc. of compounds is 3.7 μg/mL, 0.6% DMSO). Similarly, 6 μL 20% DMSO and 44 μL buffer are delivered to both column 1 (NSB) and column 12 (TB). 10 μL Ser-pFPhe-Har-Leu-Har-Lys-Tyr-NH2 (721-40; 500 μM in deionized water) is added to column 1. 50 μL tritiated 721-40 (specific activity 46 Ci/mmol) is added to all the wells. The plates are mixed well for 20 seconds, incubated for 30 min, and then harvested with 10 mM HEPES/138 mM NaCl using the Skatron harvester. The filters (GF/C Brandel FPXLR 296) are presoaked 3 h in 0.5% polyethylenimine in HEPES/0.1M N-acetylglucosamine) are set in saran wrap and dried for 3 min in the microwave, and placed in sample bags (Wallac 1450-432). 4.5 mL scintillation fluid (Wallac, Betaplate Scint 1205-440) is added. The bags are sealed, placed in filter cassettes (Wallac 1450-104), and analyzed on the microbeta counter.
as §3

Row | SMILES | IC50 (gel-filtered platelets [1]) | IC50 (gel-filtered platelets [2]) | IC50 [3] | IC50 (gel-filtered platelets [1]; Platelet) | IC50 (gel-filtered platelets [2]; Platelet)
1 | N=C(N)NCCCC(NC(=O)Cc1ccccc1)C(=O)NC(Cc1ccccc1)C(=O)Nc1ccc2c(c1)c(CN1CCCC1)cn2Cc1ccc(F)cc1 (centres unmarked) [Compound 17, 5-Guanidino-2-phenylacetylamino-pentanoic acid {1-[1-(4-fluoro-benzyl)-3-pyrrolidin-1-ylmethyl-1H-indol-5-ylcarbamoyl]-2-phenyl-ethyl}-amide] | 44.5 µM | 9.8 µM | 10.4 µM | – | –
2 | N=C(N)NCCC[C@H](NC(=O)OCc1ccccc1)C(=O)N[C@@H](Cc1ccccc1)C(=O)Nc1ccc2c(CN3CCCC3)cn(Cc3ccc(F)cc3)c2c1 [Compound 19] | – | – | 2.4 µM | 18.7 µM | 11.1 µM
3 | CC(=O)N[C@@H](CCCNC(=N)N)C(=O)N[C@@H](CC1CCCCC1)C(=O)Nc1ccc2c(CN3CCCC3)cn(Cc3ccc(F)cc3)c2c1 [Compound 21] | – | – | 10.7 µM | 4.7 µM | 3.2 µM
4 | CCCNCc1cn(Cc2ccc(F)cc2)c2ccc(NC(=O)[C@@H](Cc3ccccc3)NC(=O)[C@@H](CCCNC(=N)N)NC(=O)OC3c4ccccc4-c4ccccc43)cc12 [Compound 1] | – | – | – | 51.6 µM | 43.7 µM
